Source: patent US20170224692A1, “Combination Therapy” (Novartis AG, priority 2014, published 2017)
“And” between values parts separate entries of the source, which are not always exact repeats. Equal values may be shown once.

What was measured:
Assay type in all cases: cell-based
YD-38 cells = assay: 3 day CellTiter-Glo cell proliferation assay / dose matrix combination, YD-38
Method: (§1) YD-38, CAL-33 and CCK-81 cells were cultured at 37° C. in a 5% CO2 incubator using the ATCC media (YD-38, RPMI-1640; CAL-33, DMEM; CCK-81, EMEM) supplemented with 10% FBS (Thermo scientific, SH30071.03). […] L-glutamine (Invitrogen, #25030-081) was also supplemented for CAL-33 media. Cells were passaged twice a week using TryPLE Express (Invitrogen, #12604-013).
(§2) Cell viability was determined by measuring cellular ATP content using the CellTiter-Glo®(CTG) luminescent cell viability assay (Promega #G7573) according to the manufacturer's protocol. Briefly, various number of cells (6000 for CAL-33, 4200 for YD-38 and 7000 for CCK-81) were seeded in 80 μl growth media per well in clear-bottom 96-well black plates (Costar, #3904) in triplicates. Cells were allowed to attach overnight prior to 72 hours of treatment with indicated compounds (serially-diluted where applicable) and/or 75 ng/ml HGF in a volume of 100 ul for HGF rescue experiment (+20 μl compound or HGF) or 140 ul for Chalice combination experiment (+20 μl compound A+20 μl compound B+20 ul media or HGF). At the end of the drug treatment, 100 ul CTG reagent was added to each well to lyse the cells, and luminescence signals were recorded in the Envision plate reader (Perkin Elmer).
(§3) In all combination assays, compounds were applied simultaneously. […] INC280 was subjected to a 7 doses 3× serial dilution with the highest dose at 1.5 μM and the lowest dose at about […]. The synergistic interaction was analyzed using Chalice software (CombinatoRx, Cambridge Mass.). Synergy was calculated by comparing a combination's response to those of its single agents, against the drug-with-itself dose-additive reference model and reported as Synergy Score (Lehar et al., 2009).
(§4) YD-38, CAL-33 and CCK-81 cells were treated in 96-well format for 3 days with HGF alone, Panitumumab alone, Panitumumab as a singal agent and Panitumumab with INC280 in the present or absent of HGF. (FIGS. 6 and 7). Cell viability was measured using the CellTiter-Glo assay. % viability was plotted as bar graphs with mean values and standard deviations from triplicates. […] Each data point represents averaged data from 3 wells +standard deviation, and the color spectrum also represents the level of the inhibition.

CAL-33 cells = assay: 3 day CellTiter-Glo cell proliferation assay / dose matrix combination, CAL-33
Method: as §1, §2, §3, §4

CCK-81 cells = assay: 3 day CellTiter-Glo cell proliferation assay / dose matrix combination, CCK-81
Method: as §1, §2, §3, §4

[1] = system: YD-38, CAL-33 and CCK-81 cells; assay: 3 day CellTiter-Glo proliferation / dose matrix combination, statements over all three cell lines
Method: Cell viability was determined by measuring cellular ATP content using the CellTiter-Glo®(CTG) luminescent cell viability assay (Promega #G7573) according to the manufacturer's protocol. Briefly, various number of cells (6000 for CAL-33, 4200 for YD-38 and 7000 for CCK-81) were seeded in 80 μl growth media per well in clear-bottom 96-well black plates (Costar, #3904) in triplicates. […] At the end of the drug treatment, 100 ul CTG reagent was added to each well to lyse the cells, and luminescence signals were recorded in the Envision plate reader (Perkin Elmer).
In all combination assays, compounds were applied simultaneously. […] The synergistic interaction was analyzed using Chalice software (CombinatoRx, Cambridge Mass.). Synergy was calculated by comparing a combination's response to those of its single agents, against the drug-with-itself dose-additive reference model and reported as Synergy Score (Lehar et al., 2009).
YD-38, CAL-33 and CCK-81 cells were treated in 96-well format for 3 days with HGF alone, Panitumumab alone, Panitumumab as a singal agent and Panitumumab with INC280 in the present or absent of HGF. […] Cell viability was measured using the CellTiter-Glo assay. % viability was plotted as bar graphs with mean values and standard deviations from triplicates. […]

[2] = INC280 single agent, dose matrix
[3] = co-treatment with 500 nM INC280, 100 nM Cetuximab, 75 ng/ml HGF
[4] = addition of 75 ng/ml HGF together with antibody

## CNC(=O)c1ccc(-c2cnc3ncc(Cc4ccc5ncccc5c4)n3n2)cc1F [INC280, 2-fluoro-N-methyl-4-[(7-quinolin-6-yl-methyl)-imidazo[1,2-b]triazin-2-yl]benzamide]
YD-38 cells; [2]
  anti-proliferation effect, single agent: no anti-proliferation effect
YD-38 cells; [3]
  block of the HGF rescue of Cetuximab effect: completely blocked
YD-38 cells; presence of HGF, dose matrix
  INC280 concentration that re-sensitized HGF-treated cells to Cetuximab: 18 nM
CAL-33 cells; [2]
  anti-proliferation effect, single agent: no anti-proliferation effect
CAL-33 cells; [3]
  block of the HGF rescue of Cetuximab effect: completely blocked
CAL-33 cells; presence of HGF, dose matrix
  INC280 concentration that re-sensitized HGF-treated cells to Cetuximab: 18 nM
CCK-81 cells; INC280 at 1.5 μM, presence of HGF, read-out: growth inhibition, single agent
  inhibition at 1.5 µM: ~20%
CCK-81 cells; [3]
  block of the HGF rescue of Cetuximab effect: fully blocked
CCK-81 cells; presence of HGF, dose matrix
  INC280 concentration that re-sensitized HGF-treated cells to Cetuximab: 18 nM
[1]; INC280 single agent, regardless of HGF addition
  anti-proliferation effect, single agent: little or no anti-proliferation effect
[1]; presence of HGF
  INC280 concentration that re-sensitized cells to Cetuximab: 18 nM

## HGF: Recombinant HGF (R&D Systems, 294-HG-005/CF), ligand activating MET [reference compound]
YD-38 cells; 75 ng/ml HGF alone
  growth-stimulating effect of HGF alone: no growth-stimulating effect
CAL-33 cells; 75 ng/ml HGF alone
  growth-promoting effect by HGF alone: ~16%
CCK-81 cells; 75 ng/ml HGF alone
  growth-stimulating effect of HGF alone: ~19% and ~20%

## Panitumumab: fully human monoclonal antibody specific to the epidermal growth factor receptor [reference compound]
YD-38 cells; [4]
  HGF rescue of the anti-proliferation effect of the EGFR antibody: rescued
CAL-33 cells; [4]
  HGF rescue of the anti-proliferation effect of the EGFR antibody: rescued
CCK-81 cells; [4]
  HGF rescue of the anti-proliferation effect of the EGFR antibody: rescued
